Results published in patent US7642251B2, “Compounds for the treatment of hepatitis C” (Bristol-Myers Squibb Company, priority 2007, dated 2010).
Where two headings read alike, the source gives them in different places.

Assays:
HCV replicon cells = assay: HCV replicon FRET assay; type: cell-based; settings: Hepatitis C virus
Description: FRET Assay Preparation. To perform the HCV FRET screening assay, 96-well cell culture plates were used. The FRET peptide (Anaspec, Inc.) (Taliani et al., Anal. Biochem. 1996, 240, 60-67) contains a fluorescence donor, EDANS, near one end of the peptide and an acceptor, DABCYL, near the other end. The fluorescence of the peptide is quenched by […] resonance energy transfer (RET) between the donor and the acceptor, but as the NS3 protease cleaves the peptide the products are released from RET quenching and the fluorescence of the donor becomes apparent. The assay reagent was made as follows: 5× cell Luciferase cell culture lysis reagent from Promega (#E153A) diluted to 1× with dH2O, NaCl added to 150 mM final, the FRET peptide diluted to 20 μM final from a 2 mM stock.
To prepare plates, HCV replicon cells, with or without a Renilla luciferase reporter gene, were trypsinized and placed into each well of a 96-well plate with titrated test compounds added in columns 3 through 12; columns 1 and 2 contained a control compound (HCV protease inhibitor), and the bottom row contained cells without compound. The plates were then placed in a CO2 incubator at 37° C.
Assays. Subsequent to addition of the test compounds described above (FRET Assay Preparation), at various times the plate was removed and Alamar blue solution (Trek Diagnostics, #00-100) was added per well as a measure of cellular toxicity. After reading in a Cytoflour 4000 instrument (PE Biosystems), plates were rinsed with PBS and then used for FRET assay by the addition of 30 ul of the FRET peptide assay reagent described above (FRET Assay Preparation) per well. The plate was then placed into the Cytoflour 4000 instrument which had been set to 340 excite/490 emission, automatic mode for 20 cycles and the plate read in a kinetic mode. Typically, the signal to noise using an endpoint analysis after the reads was at least three-fold. Alternatively, after Alamar blue reading, plates were rinsed with PBS, 50 ul of DMEM (high glucose) without phenol red was added and plates were then used for luciferase assay using the Promega Dual-Glo Luciferase Assay System.
Compound analysis was determined by quantification of the relative HCV replicon inhibition and the relative cytotoxicity values. To calculate cytoxicity values, the average Alamar Blue fluorescence signals from the control wells were set as 100% non-toxic. The individual signals in each of the compound test wells were then divided by the average control signal and multiplied by 100% to determine […]. To calculate the HCV replicon inhibition values, an average background value was obtained from the two wells containing the highest amount of HCV protease inhibitor at the end of the assay period. These numbers were similar to those obtained from naïve Huh-7 cells.
The background numbers were then subtracted from the average signal obtained from the control wells and this number was used as 100% activity. The individual signals in each of the compound test wells were then divided by the averaged control values after background subtraction and multiplied by 100% to determine percent activity. EC50 values for a protease inhibitor titration were calculated as the concentration which caused a 50% reduction in FRET or luciferase activity. The two numbers generated for the compound plate, percent cytoxicity and percent activity were used to determine compounds of interest for further analysis.

HCV NS5B = biological target: T1, HCV NS5B (Hepatitis C virus genotype 1b, UniProt Q9WMX2); assay: Modified HCV NS5B RdRp enzyme assay (preincubation protocol); type: biochemical
T1 construct: The cDNA encoding the NS5B protein of HCV, genotype 1b; made in house; host or cells: E. coli BL21(DE3)
Description: HCV NS5B RdRp cloning, expression, and purification. The cDNA encoding the NS5B protein of HCV, genotype 1b, was cloned into the pET21a expression vector. The protein was expressed with an 18 amino acid C-terminal truncation to enhance the solubility. The E. coli competent cell line BL21(DE3) was used for expression of the protein. Cultures were grown at 37° C. for ˜4 hours until the cultures reached an optical density of 2.0 at 600 nm. The cultures were cooled to 20° C. and induced with 1 mM IPTG. Fresh ampicillin was added to a final concentration of 50 μg/ml and the cells were grown overnight at 20° C.
Cell pellets (3 L) were lysed for purification to yield 15-24 mgs of purified NS5B. The lysis buffer consisted of 20 mM Tris-HCl, pH 7.4, 500 mM NaCl, 0.5% triton X-100, 1 mM DTT, 1 mM EDTA, 20% glycerol, 0.5 mg/ml lysozyme, 10 mM MgCl2, 15 ug/ml deoxyribonuclease I, and Complete™ protease inhibitor tablets (Roche). After addition of the lysis buffer, frozen cell pellets were resuspended using a tissue homogenizer. To reduce the viscosity of the sample, aliquots of the lysate were sonicated on ice using a microtip attached to a Branson sonicator. The sonicated lysate was centrifuged at 100,000×g for 1 hr at 4° C. and filtered through a 0.2 μm filter unit (Corning).
The protein was purified using three sequential chromatography steps: Heparin sepharose CL-6B, polyU sepharose 4B, and Hitrap SP sepharose (Pharmacia). The chromatography buffers were identical to the lysis buffer but contained no lysozyme, deoxyribonuclease I, MgCl2 or protease inhibitor and the NaCl concentration of the buffer was adjusted according to the requirements for charging the protein onto the column. Each column was eluted with a NaCl gradient which varied in length from 5-50 column volumes depending on the column type. After the final chromatography step, the resulting purity of the enzyme is >90% based on SDS-PAGE analysis. The enzyme was aliquoted and stored at −80° C.
Standard HCV NS5B RdRp enzyme assay. HCV RdRp genotype 1b assays were run in a final volume of 60 μl in 96 well plates (Costar 3912). The assay buffer is composed of 20 mM Hepes, pH 7.5, 2.5 mM KCl, 2.5 mM MgCl2, 1 mM DTT, 1.6 U RNAse inhibitor (Promega N2515), 0.1 mg/ml BSA (Promega R3961), and 2% glycerol. All compounds were serially diluted (3-fold) in DMSO and diluted further in water such that the final concentration of DMSO in the assay was 2%. HCV RdRp genotype 1b enzyme was used at a final concentration of 28 nM. A polyA template was used at 6 nM, and a biotinylated oligo-dT12 primer was used at 180 nM final concentration. Template was obtained commercially (Amersham 27-4110). Biotinylated primer was prepared by Sigma Genosys. 3H-UTP was used at 0.6 μCi (0.29 μM total UTP). Reactions were initiated by the addition of enzyme, incubated at 30° C. for 60 min, and stopped by adding 25 μl of 50 mM EDTA containing SPA beads (4 μg/μl, Amersham RPNQ 0007). Plates were read on a Packard Top Count NXT after >1 hr incubation at room temperature.
Modified HCV NS5B RdRp enzyme assay. A modified enzyme assay was performed essentially as described for the standard enzyme assay except for the following: The biotinylated oligo dT12 primer was precaptured on streptavidin-coated SPA beads by mixing primer and beads in assay buffer and incubating at room temperature for one hour. Unbound primer was removed after centrifugation. The primer-bound beads were resuspended in 20 mM Hepes buffer, pH 7.5 and used in the assay at final concentrations of 20 nM primer and 0.67 μg/μl beads. Order of addition in the assay: enzyme (14 nM) was added to diluted compound followed by the addition of a mixture of template (0.2 nM), 3H-UTP (0.6 μCi, 0.29 μM), and primer-bound beads, to initiate the reaction; concentrations given are final. Reactions were allowed to proceed for 4 hours at 30° C.
IC50 values for compounds were determined using seven different [I]. […]

[1] = preincubation protocol, read-out: IC50

T1 sequence (Q9WMX2 2420-2992): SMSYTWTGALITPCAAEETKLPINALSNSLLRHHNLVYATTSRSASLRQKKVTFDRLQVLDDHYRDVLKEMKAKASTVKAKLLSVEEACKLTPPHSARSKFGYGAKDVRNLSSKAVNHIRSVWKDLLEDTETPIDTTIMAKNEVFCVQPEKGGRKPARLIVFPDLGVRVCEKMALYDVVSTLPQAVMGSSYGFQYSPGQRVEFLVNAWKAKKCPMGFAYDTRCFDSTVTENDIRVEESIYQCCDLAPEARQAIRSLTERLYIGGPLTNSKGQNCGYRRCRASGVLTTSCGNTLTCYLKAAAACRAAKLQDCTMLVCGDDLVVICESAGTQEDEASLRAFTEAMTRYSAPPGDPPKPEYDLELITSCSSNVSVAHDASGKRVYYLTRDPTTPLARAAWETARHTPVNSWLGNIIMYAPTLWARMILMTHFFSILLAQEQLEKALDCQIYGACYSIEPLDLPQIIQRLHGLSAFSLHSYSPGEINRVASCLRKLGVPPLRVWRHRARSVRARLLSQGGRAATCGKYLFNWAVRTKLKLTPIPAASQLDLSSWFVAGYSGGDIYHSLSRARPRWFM

| SMILES | EC50 (HCV replicon cells; FRET assay, read-out: EC50) | IC50 (HCV NS5B; [1]) | EC50 (HCV replicon cells) | IC50 (HCV NS5B) |
| --- | --- | --- | --- | --- |
| COc1ccc2c(c1)C=C(c1ccccc1S(=O)(=O)N(C)CCN(C)C)Cn1c-2c(C2CCCCC2)c2ccc(C(=O)NS(=O)(=O)C(C)C)cc21 | 4.58 to 500 nM | 4.58 to 500 nM | – | – |
| COc1ccc2c(c1)C=C(c1ncccc1N(C)C)Cn1c-2c(C2CCCCC2)c2ccc(C(=O)NS(=O)(=O)N(C)C)cc21 | 4.58 to 500 nM | 4.58 to 500 nM | – | – |
| COc1ccc2c(c1)C=C(c1ncccc1C(=O)N1CCCC1)Cn1c-2c(C2CCCCC2)c2ccc(C(=O)O)cc21 | 4.58 to 500 nM | 4.58 to 500 nM | – | – |
| COc1ccc2c(c1)C=C(c1nccc(N(C)C)n1)Cn1c-2c(C2CCCCC2)c2ccc(C(=O)O)cc21 | > 500 nM | > 500 nM | – | – |
| COc1ccc2c(c1)C=C(c1ccc3sc(C)nc3c1)Cn1c-2c(C2CCCCC2)c2ccc(C(=O)O)cc21 | > 500 nM | 4.58 to 500 nM | – | – |
| COc1ccc2c(c1)C=C(c1ncccc1C(=O)N1CCCCC1)Cn1c-2c(C2CCCCC2)c2ccc(C(=O)NS(=O)(=O)N(C)C)cc21 | 4.58 to 500 nM | 4.58 to 500 nM | – | – |
| COc1ccc2c(c1)C=C(c1cccc3c1OC(F)(F)O3)Cn1c-2c(C2CCCCC2)c2ccc(C(=O)O)cc21 | > 500 nM | 4.58 to 500 nM | – | – |
| COc1ccc2c(c1)C=C(c1ccccc1C(F)(F)F)Cn1c-2c(C2CCCCC2)c2ccc(C(=O)NS(=O)(=O)C(C)C)cc21 | > 500 nM | 4.58 to 500 nM | – | – |
| COc1ccc2c(c1)C=C(c1ccccc1-c1noc(C)n1)Cn1c-2c(C2CCCCC2)c2ccc(C(=O)NS(=O)(=O)C(C)C)cc21 | 4.58 to 500 nM | 4.58 to 500 nM | – | – |
| COc1ccc2c(c1)C=C(c1ncccc1C(=O)N1CCOCC1)Cn1c-2c(C2CCCCC2)c2ccc(C(=O)NS(=O)(=O)N(C)C)cc21 | 4.58 to 500 nM | 4.58 to 500 nM | – | – |
| COc1ccc2c(c1)C=C(c1ccc(N3CCOCC3)nn1)Cn1c-2c(C2CCCCC2)c2ccc(C(=O)NS(=O)(=O)N(C)C)cc21 | > 500 nM | 4.58 to 500 nM | – | – |
| COc1ccc2c(c1)CC(c1cccc(OCCN3CCOCC3)c1)Cn1c-2c(C2CCCCC2)c2ccc(C(=O)NS(=O)(=O)C(C)C)cc21 (centres unmarked) | 4.58 to 500 nM | 4.58 to 500 nM | – | – |
| COc1ccc2c(c1)C=C(c1ncccc1N(C)C)Cn1c-2c(C2CCCCC2)c2ccc(C(=O)O)cc21 | 4.58 to 500 nM | 4.58 to 500 nM | – | – |
| COc1ccc2c(c1)C=C(c1ncccc1S(=O)(=O)N1CCOCC1)Cn1c-2c(C2CCCCC2)c2ccc(C(=O)O)cc21 | 4.58 to 500 nM | 4.58 to 500 nM | – | – |
| COc1ccc2c(c1)C=C(c1ccccc1OC(F)(F)C(F)(F)F)Cn1c-2c(C2CCCCC2)c2ccc(C(=O)NS(=O)(=O)C(C)C)cc21 | > 500 nM | 4.58 to 500 nM | – | – |
| COc1ccc2c(c1)CC(c1cccc(N3CCOCC3)n1)Cn1c-2c(C2CCCCC2)c2ccc(C(=O)NS(=O)(=O)N(C)C)cc21 (centres unmarked) | 4.58 to 500 nM | 4.58 to 500 nM | – | – |

| SMILES | EC50 (HCV replicon cells; FRET assay, read-out: EC50) | IC50 (HCV NS5B; [1]) | EC50 (HCV replicon cells) | IC50 (HCV NS5B) |
| --- | --- | --- | --- | --- |
| COc1ccc2c(c1)C=C(c1ccccc1)Cn1c-2c(C2CCCCC2)c2ccc(C(=O)NS(=O)(=O)C(C)C)cc21 | > 500 nM | 4.58 to 500 nM | – | – |
| COc1ccc2c(c1)C=C(c1ncccc1C(=O)N1CCOCC1)Cn1c-2c(C2CCCCC2)c2ccc(C(=O)O)cc21 | 4.58 to 500 nM | 4.58 to 500 nM | – | – |
| COc1ccc2c(c1)C=C(c1cccc(OCCN3CCOCC3)c1)Cn1c-2c(C2CCCCC2)c2ccc(C(=O)O)cc21 | > 500 nM | 4.58 to 500 nM | – | – |
| COc1ccc2c(c1)C=C(c1cccc(OCCN(C)C)c1)Cn1c-2c(C2CCCCC2)c2ccc(C(=O)NS(=O)(=O)C(C)C)cc21 | > 500 nM | 4.58 to 500 nM | – | – |
| COc1ccc2c(c1)C=C(c1ncccc1C(=O)N(C)C)Cn1c-2c(C2CCCCC2)c2ccc(C(=O)NS(=O)(=O)N(C)C)cc21 | 4.58 to 500 nM | 4.58 to 500 nM | – | – |
| COc1ccc2c(c1)CC(c1cccc(OCCN(C)C)c1)Cn1c-2c(C2CCCCC2)c2ccc(C(=O)NS(=O)(=O)C(C)C)cc21 (centres unmarked) | 4.58 to 500 nM | 4.58 to 500 nM | – | – |
| COc1ccc2c(c1)C=C(c1ccccc1OCCN(C)C)Cn1c-2c(C2CCCCC2)c2ccc(C(=O)NS(=O)(=O)C(C)C)cc21 | 4.58 to 500 nM | 4.58 to 500 nM | – | – |
| COc1ccc2c(c1)C=C(c1ccccc1S(=O)(=O)N(C)C)Cn1c-2c(C2CCCCC2)c2ccc(C(=O)NS(=O)(=O)C(C)C)cc21 | > 500 nM | 4.58 to 500 nM | – | – |
| COc1ccc2c(c1)C=C(c1ccccc1OC(F)F)Cn1c-2c(C2CCCCC2)c2ccc(C(=O)NS(=O)(=O)C(C)C)cc21 | > 500 nM | 4.58 to 500 nM | – | – |
| COc1ccc2c(c1)C=C(c1ncccc1C(=O)N1CCN(C)CC1)Cn1c-2c(C2CCCCC2)c2ccc(C(=O)NS(=O)(=O)N(C)C)cc21 | 4.58 to 500 nM | 4.58 to 500 nM | – | – |
| COc1ccc2c(c1)C=C(c1ccccc1CS(C)(=O)=O)Cn1c-2c(C2CCCCC2)c2ccc(C(=O)NS(=O)(=O)C(C)C)cc21 | 4.58 to 500 nM | 4.58 to 500 nM | – | – |
| COc1ccc2c(c1)C=C(c1ncccc1C(=O)N1CCN(C)CC1)Cn1c-2c(C2CCCCC2)c2ccc(C(=O)O)cc21 | 4.58 to 500 nM | 4.58 to 500 nM | – | – |
| COc1ccc2c(c1)C=C(c1cccc(OCCN3CCOCC3)c1)Cn1c-2c(C2CCCCC2)c2ccc(C(=O)NS(=O)(=O)C(C)C)cc21 | > 500 nM | 4.58 to 500 nM | – | – |
| COc1ccc2c(c1)C=C(c1ncccc1S(=O)(=O)N1C3CCC1CN(C)C3)Cn1c-2c(C2CCCCC2)c2ccc(C(=O)NS(=O)(=O)N(C)C)cc21 | – | – | 4.58 to 500 nM | 4.58 to 500 nM |
| COc1ccc2c(c1)C=C(c1cccc(OCCN(C)C)c1)Cn1c-2c(C2CCCCC2)c2ccc(C(=O)O)cc21 | > 500 nM | 4.58 to 500 nM | – | – |
